Laboratory results taken from patent US20260284075A1, “UNIT DOSAGE COMPOSITION COMPRISING MIDAZOLAM” (B. Braun Melsungen AG, priority 2023, published 2026).

Assay: Pharmacokinetic evaluation of oral thin films in dogs (midazolam in plasma, LC-MS/MS)
Format: in vivo, Marshall Beagle dogs
Details: from cyclodextrin-containing films
Experimental: To investigate the local tolerability and pharmacokinetics of the four oral thin films prepared according to Example 1, the oral thin films containing 3.0 mg of midazolam HCl (corresponding to 2.7 mg of midazolam free base) were subsequently applied to 6 non-naïve Marshall Beagle dogs (3 male weighing 8.6-11 kg and 3 female weighing 7.5-8.1 kg) with at least 3 days washout phase between the treatments. DORMICUM® 7.5 mg tablets and a Midazolam 5 mg/mL solution for injection/infusion (obtained from B. Braun) were used as reference. The dogs were fastened before dose administration and during the period of the experiment. On the days of treatment, the animals were offered their first daily meal after collection of the blood sample 2 hours after dose, and the second meal of the day was given after collection of the blood sample 6 hours after dose.
Blood samples were taken from the dogs before the treatment, and 2, 5, 10, 30, 60, 120, and 360 minutes after the dose administration. Blood samples of approximately 2 mL were collected from the saphenous vein. […]
The concentration of midazolam in the blood samples was determined using validated liquid chromatography-mass spectrometry (LC-MS/MS) methods. […] The concentration of analytes in unknown samples was calculated using the analyte/internal standard area ratios. […] It was well mixed and the samples analyzed by using LC-MS/MS.

For `Cc1ncc2n1-c1ccc(Cl)cc1C(c1ccccc1F)=NC2` [midazolam, 8-chloro-6-(2-fluoropheny)-1-methyl-4H-imidazo[1,5-α][1,4]benzodiazepine], the “time within which midazolam is absorbed through the oral mucosa” value was no more than 10 min.
